Measurements published in patent publication US10285865B2, “Drug-releasing device usable in mucosal body cavities” (Princeton Trade & Technololgy, Inc., priority 2014, dated 2019).
In brackets after ≈: the same amount, converted by molar mass.

How the values were obtained:
Type in all cases: cell-based
[1] = system: Pseudomonas aeruginosa; test: Minimum Inhibitory Concentration (MIC) in water
From the text: (§1) In an embodiment of the invention, the two forms of Ciprofloxacin can be combined in a single implant so as to achieve a desired the rate of delivery, the solubility limit of the drug in middle ear exudate or release of the drug. […]. The Minimum Inhibitory Concentration is the smallest concentration of a drug in water that will inhibit growth of a particular bacteria in solution.
(§2) The quantity Minimum Inhibitory Concentration (MIC) is the smallest concentration of a drug in water that will inhibit growth of a particular organism. It may be desirable for the administered concentration of a drug to be some multiple of this quantity. MIC for Ciprofloxacin is given here for several organisms typical of otitis media. For Pseudomonas aeruginosa, the MIC is 0.09 micrograms per milliliter. […] For Haemophilus influenza, the MIC is 0.06 micrograms per milliliter.

[2] = system: Streptococcus pneumonia; test: Minimum Inhibitory Concentration (MIC) in water; settings: Streptococcus pneumoniae
From the text: as §1, §2

[3] = system: Haemophilus influenza; test: Minimum Inhibitory Concentration (MIC) in water
From the text: as §1, §2

[4] = system: Staphylococcus aureus GFP; test: microbe, parasite or virus in culture
From the text: as §1, §2

[5] = system: Staphylococcus aureus LUX; test: microbe, parasite or virus in culture
From the text: as §1, §2

For O=C(O)c1cn(C2CC2)c2cc(N3CCNCC3)c(F)cc2c1=O [Ciprofloxacin], the MIC [1] was 0.09 µg/mL (≈ 0.272 µM), the MIC [2] was 0.75 µg/mL (≈ 2.26 µM) and the MIC [3] was 0.06 µg/mL (≈ 0.181 µM). The MIC [4] was 0.28 µg/mL (≈ 0.845 µM) and the MIC [5] was 0.28 µg/mL (≈ 0.845 µM).
